Experimental data taken from patent US20220256902A1, “NOVEL STEVIOL GLYCOSIDE, METHOD FOR PRODUCING SAME, AND SWEETENER COMPOSITION CONTAINING SAME” (SUNTORY HOLDINGS LIMITED, priority 2019, published 2022).

What was measured:
[1] = Evaluation of sweetness level: choosing the sugar-added sample of equivalent sweetness intensity; format: in vivo
Experimental: In order to evaluate the sweetness levels of Novel steviol glycosides A and B, samples were prepared by adding sugar to pure water to give Brix of 3.0 to 5.0 in 0.5 increments. Compounds 15 and 17 obtained by the chemical syntheses were used as Novel steviol glycosides A and B, respectively, where 48 mg of each sample was dissolved in 400 mL of pure water to be tested. In addition, samples were also prepared for comparison by dissolving 48 mg of each of Reb.A, Reb.D and Reb.M in 400 mL of pure water.

[2] = Sensory evaluation of taste quality of beverage samples (sweetness on-set, lingering sweet aftertaste, bitterness, lingering bitter aftertaste); format: in vivo
Source text: In order to evaluate the taste quality of various steviol glycosides, Reb.A, Reb.D, Reb.M, sugar and Novel steviol glycoside A (Compound 15) were each added to pure water to prepare beverage samples. All of the beverage samples were adjusted to have final sweetness level (Brix) of 5 in terms of sugar (sucrose), and thus the sweetness levels of Reb.A, Reb.D, Reb.M and Novel steviol glycoside A (Compound 15) were 312, 317, 341 and 354, respectively.
(§1) The resulting beverage samples were subjected to sensory evaluation for rating the attributes, which were sweetness on-set, lingering sweet aftertaste, bitterness and lingering bitter aftertaste. Panelists who had been trained about sensory attributes of sweeteners (7 members) evaluated based on the following evaluation criteria. For each evaluation item, the steviol glycosides were scored in 0.5 increments provided that the score of sugar was 3. […]
as §1

[3] = evaluation with Novel steviol glycoside A (Compound 15), restated averages of Table 2
[4] = evaluation with Novel steviol glycoside B (Compound 17), restated averages of Table 3

| Structure (SMILES) | sweetness level, times higher in average than that of sugar ([1]; average of panelists, 48 mg in 400 mL pure water) | sweetness levels taken for adjusting the beverage samples to Brix 5 in terms of sugar [1, 3] | sweetness (sensory evaluation, in words) ([2]; beverage samples in pure water, Brix 5 in terms of sugar, vs Reb.A, Reb.D, Reb.M, FIG. 14) | lingering sweet and bitter aftertastes ([2]; general statement in the description) | sweetness levels taken for adjusting the beverage samples to Brix 5 in terms of sugar [1, 4] |
| --- | --- | --- | --- | --- | --- |
| C=C1CC23CCC4C(C)(C(=O)OC5OC(CO)C(O)C(O)C5OC5OCC(O)C(O)C5O)CCCC4(C)C2CCC1(OC1OC(CO)C(O)C(OC2OC(CO)C(O)C(O)C2O)C1OC1OC(CO)C(O)C(O)C1O)C3 (stereo not shown) [Novel steviol glycoside A] | about 354 times | 354 | less sweetness | less lingering sweet and bitter aftertastes | – |
| C=C1C[C@@]23CC[C@H]4[C@@](C)(CCC[C@@]4(C)C(=O)O[C@@H]4O[C@H](CO)[C@@H](O)[C@H](O)[C@H]4O)[C@@H]2CC[C@]1(O[C@@H]1O[C@H](CO)[C@@H](O)[C@H](O[C@@H]2O[C@H](CO)[C@@H](O)[C@H](O)[C@H]2O)[C@H]1O[C@@H]1O[C@H](CO)[C@@H](O)[C@H](O)[C@H]1O)C3 [Reb A, rebaudioside A] | – | 312 | – | – | 288 |
| C=C1C[C@@]23CC[C@H]4[C@@](C)(CCC[C@@]4(C)C(=O)O[C@@H]4O[C@H](CO)[C@@H](O)[C@H](O)[C@H]4O[C@@H]4O[C@H](CO)[C@@H](O)[C@H](O)[C@H]4O)[C@@H]2CC[C@]1(O[C@@H]1O[C@H](CO)[C@@H](O)[C@H](O[C@@H]2O[C@H](CO)[C@@H](O)[C@H](O)[C@H]2O)[C@H]1O[C@@H]1O[C@H](CO)[C@@H](O)[C@H](O)[C@H]1O)C3 [Reb D, rebaudioside D] | – | 317 | – | – | 310 |
| C=C1C[C@@]23CC[C@H]4[C@@](C)(CCC[C@@]4(C)C(=O)O[C@@H]4O[C@H](CO)[C@@H](O)[C@H](O[C@@H]5O[C@H](CO)[C@@H](O)[C@H](O)[C@H]5O)[C@H]4O[C@@H]4O[C@H](CO)[C@@H](O)[C@H](O)[C@H]4O)[C@@H]2CC[C@]1(O[C@@H]1O[C@H](CO)[C@@H](O)[C@H](O[C@@H]2O[C@H](CO)[C@@H](O)[C@H](O)[C@H]2O)[C@H]1O[C@@H]1O[C@H](CO)[C@@H](O)[C@H](O)[C@H]1O)C3 [Reb M, rebaudioside M] | – | 341 | – | – | 324 |
